The compounds below were run against T1, wild-type human melanocortin 4 receptor (WT-hMC4R) (Homo sapiens, UniProt P32245) (assay: Cyclic AMP assay (HTRF), antagonist competition against NDP-α-MSH). Conditions: HEK293T cells stably expressing WT-hMC4R; inhibition of response to 4 nM NDP-α-MSH; cAMP.
T1 construct: expressed in transfected cells
T1 sequence (P32245 whole entry): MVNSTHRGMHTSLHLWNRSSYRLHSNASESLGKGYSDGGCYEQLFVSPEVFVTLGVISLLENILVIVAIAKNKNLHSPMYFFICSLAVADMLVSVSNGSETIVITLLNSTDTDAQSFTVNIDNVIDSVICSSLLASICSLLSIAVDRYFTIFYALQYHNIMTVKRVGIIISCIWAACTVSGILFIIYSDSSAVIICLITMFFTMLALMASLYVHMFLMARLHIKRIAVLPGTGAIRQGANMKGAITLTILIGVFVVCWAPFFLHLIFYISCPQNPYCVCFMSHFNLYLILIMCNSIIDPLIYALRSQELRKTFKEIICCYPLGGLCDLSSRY
Type: cell-based
Method: The general procedures described above were used to prepare the examples described below. Reported HPLC retention time are for reverse-phase HPLC (Agilent, 1200 series) using the conditions reported above (See “General” section). Mass spectra were recorded on a 6210 G1969A LC/MSD TOF spectrometer from Agilent Technologies using the LC conditions reported above (See “General” section). IC50 values were obtained using the cAMP assay described below.
IC50 value is the half maximal concentration of the tested compound to inhibit half of the maximal response of the agonist NDP-α-MSH. It is a measurement of the antagonist compound potency.
Intracellular cyclic 3′-5′ adenosine monophosphate (cAMP) accumulation was measured using a competitive immunoassay based on HTRF (Homogeneous Time-Resolved Fluorescence) technology (cAMP dynamic-2, Cis-Bio).
HEK293T stable cell line expressing double-tagged WT-hMC4R construct were collected and washed in cAMP buffer (1×D-PBS pH 7.4, 0.1% glucose). 40,000 cells/well were then dispensed in 96-well plates in cAMP buffer [1×D-PBS, 1% BSA, 0.1% Glucose, 0.75 mM 3-isobutyl-1-methyl-xanthine (IBMX, Sigma)] and incubated either for antagonist competition assay: 1 hour at 37° C. with various concentrations of compound [0.01 nM-10 μM] followed by 30 min incubation at 37° C. with 4 nM of NDP-α-MSH (Sigma) or for agonist assay: 1 hour at 37° C. with various concentrations of compound [0.01 nM-10 μM]. 10,000 cells were transferred in 384-well plates, lysed and incubated with cAMP labeled with the dye d2 and anti-cAMP M-Antidody labeled with Cryptate following the manufacturer's protocol.
Reading of HTRF signal was performed on Artemis TR-FRET plate reader (Cosmo Bio).
All curve fitting was conducted using non-linear regression analyses from PRISM (version 4.0c, GraphPad Inc.) and the determination of Rmax and EC50 or IC50 parameters were obtained from sigmoidal dose-response phase (variable slope) equation.
A cDNA encoding a wild-type human MC4R with a 3 tandem copies of Hemaglutinine (HA) epitote sequence from UMR cDNA resource center was modified using known techniques in the art (e.g., PCR, cloning) to fused in frame at the C-terminal a venus-Yellow Fluorescent Protein (YFP) cDNA.
The resultant cDNA was then subcloned in eukaryotic expression vector, e.g. pcDNA 3.1(+) (Invitrogen).
The double tagged WT-hMC4R was transfected in HEK293T cells with lipofectamine (Invitrogen) following the manufacturer's instructions and permanently transfected clonal cell lines were selected by resistance to the neomycin analog G418.
HEK293T stable cell line expressing wild-type human melanocortin 4 receptor (WT-hMC4R) containing an N-terminal 3×HA epitope tag and an intracellular C-terminal venus-yellow fluorescent protein (v-YFP) were maintained at 37° C. in humidified air containing 5% CO2 in Dulbecoo's modified Eagle's medium (DMEM) supplemented with 10% fetal bovine serum (FBS), 100 U/ml penicillin/streptomycin (DMEM complete/10% FBS). Cells were generally at 70%-80% confluence on the day of assay.
`CCCCN(CCCC)C(=O)c1ccc2nc(Nc3ccc(OC)cc3)n(CCCN3CCCCC3)c2n1` [Cpd 1] gave an IC50 of less than 100 nM.
Work on `COc1ccc(Nc2nc3ccc(C(=O)N4CC(C)CC(C)C4)nc3n2CCCN2CCCCC2)cc1` (stereo not shown) [Cpd 2, (3,5-dimethylpiperidin-1-yl)(2-((4-methoxyphenyl)amino)-3-(3-(piperidin-1-yl)propyl)-3H-imidazo[4,5-b]pyridin-5-yl)methanone] yielded an IC50 of 1000 to 15000 nM.
`CCCCN(CCCC)C(=O)c1ccc2nc(C)n(CCCN3CCCCC3)c2n1` [Cpd 3, N,N-dibutyl-2-methyl-3-(3-(piperidin-1-yl)propyl)-3H-imidazo[4,5-b]pyridine-5-carboxamide] gave an IC50 of 1000 to 15000 nM.
Work on `CCCCN(CCCC)C(=O)c1ccc2nc(-c3cccc(C#N)c3)n(CCCN3CCCCC3)c2n1` [Cpd 4, N,N-dibutyl-2-(3-cyanophenyl)-3-(3-(piperidin-1-yl)propyl)-3H-imidazo[4,5-b]pyridine-5-carboxamide] yielded an IC50 of 1000 to 15000 nM.
Compound `CCCCN(CCCC)C(=O)c1ccc2nc(-c3csc4ccccc34)n(CCCN3CCCCC3)c2n1` [Cpd 5, 2-(benzo[b]thiophen-3-yl)-N,N-dibutyl-3-(3-(piperidin-1-yl)propyl)-3H-imidazo[4,5-b]pyridine-5-carboxamide] has an IC50 of 100 to 1000 nM.
`COc1ccc(Nc2nc3ccc(-c4cc5ccccc5n4C(=O)OC(C)(C)C)nc3n2CCCN2CCCCC2)cc1` [Cpd 6, tert-butyl 2-(2-((4-methoxyphenyl)amino)-3-(3-(piperidin-1-yl)propyl)-3H-imidazo[4,5-b]pyridin-5-yl)-1H-indole-1-carboxylate] gave an IC50 of 1000 to 15000 nM.
For `CCN(CCOC)C(=O)c1ccc2nc(Nc3ccc(OC)cc3)n(CCCN3CCCCC3)c2n1` [Cpd 7], the IC50 was 1000 to 15000 nM.
Compound `CCCCN(CCCC)C(=O)c1ccc2nc(Nc3ccccc3)n(CCCN3CCCCC3)c2n1` [Cpd 8] has an IC50 of less than 100 nM.
Compound `CCCCN(CCCC)C(=O)c1ccc2nc(NC(=O)c3ccccc3)n(CCCN3CCCCC3)c2n1` [Cpd 9] has an IC50 of 1000 to 15000 nM.
`CCCCN(CCCC)C(=O)c1ccc2nc(NCc3ccccc3)n(CCCN3CCCCC3)c2n1` [Cpd 10] showed an IC50 of 100 to 1000 nM.
Compound `CCCCN(CCCC)C(=O)c1ccc2nc(Nc3ccccc3Br)n(CCCN3CCCCC3)c2n1` [Cpd 11] has an IC50 of 1000 to 15000 nM.
`COc1ccc(Nc2nc3ccc(C(=O)N(CC(C)C)CC(C)C)nc3n2CCCN2CCCCC2)cc1` [Cpd 12] showed an IC50 of 100 to 1000 nM.
`CCCN(CCC)C(=O)c1ccc2nc(Nc3ccc(OC)cc3)n(CCCN3CCCCC3)c2n1` [Cpd 13] showed an IC50 of 100 to 1000 nM.
In the case of `CCCCCN(CCCCC)C(=O)c1ccc2nc(Nc3ccc(OC)cc3)n(CCCN3CCCCC3)c2n1` [Cpd 14], the IC50 is reported as less than 100 nM.
Work on `CCC(C)N(C(=O)c1ccc2nc(Nc3ccc(OC)cc3)n(CCCN3CCCCC3)c2n1)C(C)CC` (stereo not shown) [Cpd 15] yielded an IC50 of 100 to 1000 nM.
Work on `COc1ccc(Nc2nc3ccc(C(=O)N(CCC(C)C)CCC(C)C)nc3n2CCCN2CCCCC2)cc1` [Cpd 16] yielded an IC50 of less than 100 nM.
With `COCCN(CCOC)C(=O)c1ccc2nc(Nc3ccc(OC)cc3)n(CCCN3CCCCC3)c2n1` [Cpd 17] the IC50 was 1000 to 15000 nM.
`CCCCN(CCCC)C(=O)c1ccc2nc(Nc3ccc(OC)cc3)n(CCCN3CCCCC3C)c2n1` (stereo not shown) [Cpd 18] showed an IC50 of less than 100 nM.
`COc1ccc(Nc2nc3ccc(C(=O)N4CC5CCC(CC5)C4)nc3n2CCCN2CCCCC2)cc1` [Cpd 19] showed an IC50 of 1000 to 15000 nM.
`CCCCN(CC#N)C(=O)c1ccc2nc(Nc3ccc(OC)cc3)n(CCCN3CCCCC3)c2n1` [Cpd 20] gave an IC50 of 1000 to 15000 nM.
With `COc1ccc(Nc2nc3ccc(C(=O)N4CCCCCC4)nc3n2CCCN2CCCCC2)cc1` [Cpd 21] the IC50 was 1000 to 15000 nM.
With `CCC1CCC(C)N(C(=O)c2ccc3nc(Nc4ccc(OC)cc4)n(CCCN4CCCCC4)c3n2)C1` (stereo not shown) [Cpd 22] the IC50 was 1000 to 15000 nM.
`COc1ccc(Nc2nc3ccc(C(=O)N4CCCC5CCCCC54)nc3n2CCCN2CCCCC2)cc1` (stereo not shown) [Cpd 23] gave an IC50 of 1000 to 15000 nM.
With `CCCCN(CCC)C(=O)c1ccc2nc(Nc3ccc(OC)cc3)n(CCCN3CCCCC3)c2n1` [Cpd 24] the IC50 was 100 to 1000 nM.
Compound `CCCN(C(=O)c1ccc2nc(Nc3ccc(OC)cc3)n(CCCN3CCCCC3)c2n1)C(C)CC` (stereo not shown) [Cpd 25] has an IC50 of 100 to 1000 nM.
In the case of `CCCCN(CCCC)C(=O)c1ccc2nc(Nc3ccc(OC)cc3)n(C3CCN(Cc4ccccc4)CC3)c2n1` [Cpd 26], the IC50 is reported as 1000 to 15000 nM.
In the case of `COc1ccc(Nc2nc3ccc(C(=O)N(CCC(C)C)CCC(C)C)nc3n2C2CCN(Cc3ccccc3)CC2)cc1` [Cpd 27], the IC50 is reported as 1000 to 15000 nM.
For `CCCCN(CCCC)Cc1ccc2nc(Nc3ccc(OC)cc3)n(CCCN3CCCCC3C)c2n1` (stereo not shown) [Cpd 28], the IC50 was 1000 to 15000 nM.
`CCCCN(CCCC)C(=O)c1ccc2nc(Nc3ccc(OC)cc3)n(CC(C)(C)CN(C)C)c2n1` [Cpd 29] gave an IC50 of 1000 to 15000 nM.
Compound `COc1ccc(Nc2nc3ccc(C(=O)N(CCC4CC4)CCC4CC4)nc3n2CCCN2CCCCC2)cc1` [Cpd 30] has an IC50 of less than 100 nM.
With `CCCCN(CCCC)C(=O)c1cc2c(cn1)nc(Nc1ccc(OC)cc1)n2CCCN1CCCCC1` [Cpd 31] the IC50 was 100 to 1000 nM.
For `CCCCN(CCCC)C(=O)c1ccc2nc(Nc3ccc(C(C)=O)cc3)n(CCCN3CCCCC3)c2n1` [Cpd 32], the IC50 was less than 100 nM.
In the case of `CCCCN(CCCC)C(=O)c1ccc2nc(Nc3ccc(CC)cc3)n(CCCN3CCCCC3)c2n1` [Cpd 33], the IC50 is reported as 100 to 1000 nM.
Compound `CCCCN(CCCC)C(=O)c1ccc2nc(NC(C)C)n(CCCN3CCCCC3)c2n1` [Cpd 34] has an IC50 of 1000 to 15000 nM.
Work on `CCCCN(CCCC)C(=O)c1ccc2nc(Nc3cccnc3)n(CCCN3CCCCC3)c2n1` [Cpd 35] yielded an IC50 of less than 100 nM.
For `CCCCCN(CCCCC)C(=O)c1cc2c(cn1)nc(Nc1ccc(OC)cc1)n2CCCN1CCCCC1` [Cpd 36], the IC50 was less than 100 nM.
With `COc1ccc(Nc2nc3cnc(C(=O)N(CCC(C)C)CCC(C)C)cc3n2CCCN2CCCCC2)cc1` [Cpd 37] the IC50 was less than 100 nM.
With `CCCCN(CCCC)C(=O)c1cnc2nc(Nc3ccc(OC)cc3)n(CCCN3CCCCC3)c2c1` [Cpd 38] the IC50 was 1000 to 15000 nM.
Compound `CCCCN(CCCC)C(=O)c1ccc2nc(NC(=O)OCC)n(CCCN3CCCCC3)c2n1` [Cpd 39] has an IC50 of 1000 to 15000 nM.
In the case of `CCCCN(CCCC)C(=O)c1ccc2nc(N)n(CCCN3CCCCC3)c2n1` [Cpd 40], the IC50 is reported as 1000 to 15000 nM.
Compound `C=C(C)CNc1nc2ccc(C(=O)N(CCCC)CCCC)nc2n1CCCN1CCCCC1` [Cpd 41] has an IC50 of 1000 to 15000 nM.
`CCCCN(CCCC)C(=O)c1ccc2nc(-c3cc(F)ccc3Br)n(CCCN3CCCCC3)c2n1` [Cpd 42] showed an IC50 of 1000 to 15000 nM.
`CCCCN(CCCC)C(=O)c1ccc2nc(-c3ccc(Br)cc3)n(CCCN3CCCCC3)c2n1` [Cpd 43] showed an IC50 of 1000 to 15000 nM.
For `CCCCN(CCCC)C(=O)c1ccc2nc(-c3cc(Br)ccc3OC)n(CCCN3CCCCC3)c2n1` [Cpd 44], the IC50 was 100 to 1000 nM.
`CCCCN(CCCC)C(=O)c1ccc2nc(Nc3cccc4ccccc34)n(CCCN3CCCCC3)c2n1` [Cpd 45] gave an IC50 of 100 to 1000 nM.
For `CCCCN(CCCC)C(=O)c1ccc2nc(Nc3ccc(C)cc3)n(CCCN3CCCCC3)c2n1` [Cpd 46], the IC50 was less than 100 nM.
For `CCCCN(CCCC)C(=O)c1nc(O)c2nc(-c3ccc(OC)cc3)n(CCCN3CCCCC3)c2n1` [Cpd 47], the IC50 was 100 to 1000 nM.
Work on `CCCCN(CCCC)C(=O)c1ccc2nc(Nc3ccc(C(=O)OC)cc3)n(CCCN3CCCCC3)c2n1` [Cpd 48] yielded an IC50 of less than 100 nM.
With `CCCCN(CCCC)C(=O)c1ccc2nc(NC3CCCCC3)n(CCCN3CCCCC3)c2n1` [Cpd 49] the IC50 was 100 to 1000 nM.
`CCCCN(CCCC)C(=O)c1cnc2nc(Nc3ccc(OC)cc3)n(CCCN3CCCCC3)c2n1` [Cpd 50] gave an IC50 of 100 to 1000 nM.
`CCCCN(CCCC)C(=O)c1cc2c(cn1)nc(Nc1ccccc1)n2CCCN1CCCCC1` [Cpd 51] showed an IC50 of 100 to 1000 nM.
`CCCCN(CCCC)C(=O)c1cc2c(cn1)nc(NCc1ccccc1)n2CCCN1CCCCC1` [Cpd 52] showed an IC50 of less than 100 nM.
With `CCCCN(CCCC)C(=O)c1cc2c(cn1)nc(Nc1ccc(C)cc1)n2CCCN1CCCCC1` [Cpd 53] the IC50 was 100 to 1000 nM.
`COc1ccc(-c2nc3cnc(C(=O)N(CCC(C)C)CCC(C)C)nc3n2CCCN2CCCCC2)cc1` [Cpd 54] was tested, and the IC50 was 100 to 1000 nM.
`CCCCN(CCCC)C(=O)c1ccc(Nc2nc3ccc(C(=O)N(CCCC)CCCC)nc3n2CCCN2CCCCC2)cc1` [Cpd 55] gave an IC50 of 100 to 1000 nM.
For `CCCCN(CCCC)C(=O)c1ccc2nc(Nc3ccc(C(=O)N(C)C)cc3)n(CCCN3CCCCC3)c2n1` [Cpd 56], the IC50 was 100 to 1000 nM.
With `CCCCN(CCCC)C(=O)c1ccc2nc(Nc3ccc(C(=O)N4CCCCC4)cc3)n(CCCN3CCCCC3)c2n1` [Cpd 57] the IC50 was 100 to 1000 nM.
With `CCCCN(CCCC)C(=O)c1ccc2nc(Nc3ccc(C(=O)N4CCN(C)CC4)cc3)n(CCCN3CCCCC3)c2n1` [Cpd 58] the IC50 was 100 to 1000 nM.
